Assays:
[1] = target: VEGFR II (KDR kinase) (Homo sapiens, UniProt P35968); assay: Inhibition of KDR kinase activity (33P-ATP, poly-(Glu4Tyr) filter assay); type: biochemical; conditions: 10 minutes at room temperature; poly-(Glu4Tyr) substrate
Experimental: Solutions Required for the Tests
Stock solution A: 3mM ATP in water pH 7.0 (−70° C.)
Stock solution B: g-33P-ATP 1 mCi/100 μl
Stock solution C: poly-(Glu4Tyr) 10 mg/ml in water
Substrate solvent: 10 mM DTT, 10 mM manganese chloride 100 mM magnesium chloride
Enzyme solution: 120 mM Tris/HCl, pH 7,5,10 μM sodium vanadium oxide
Inhibition of KDR- and FLT-1 kinase activity in the presence of the compounds according to the invention
10 μl of substrate mix [10 μl vol ATP stock solution A+25 μCi g-33P-ATP (ca. 2.5 μl of stock solution B)+30 μl poly-(Glu4Tyr) stock solution C+1.21 ml substrate solvent], 10 μl inhibitor solution [substances corresponding to the dilutions, as a control 3% DMSO in substrate solvent] and 10 μl enzyme solution [11.25 μg enzyme stock solution (KDR or FLT-1 kinase) are diluted at 4° C. in 1.25 ml enzyme solution], are added to a tapering microtitre plate (without protein binding). The mixture is mixed thoroughly and incubated for 10 minutes at room temperature. Subsequently, 10 μl of stop solution (250 mM EDTA, pH 7.0) is added, mixed and 10 μl of the solution transferred to a P 81 phosphocellulose filter. It is subsequently washed several times in 0.1 M phosphoric acid. The filter paper is dried, coated with MeltiLex and measured in a MicroBeta counter.
The IC50 values are determined from the concentration of inhibitor required to inhibit the phosphate incorporation to 50% of the uninhibited incorporation after deducting the reference value (EDTA-stopped reaction).

Sequence of VEGFR II (KDR kinase) (P35968 20-1356): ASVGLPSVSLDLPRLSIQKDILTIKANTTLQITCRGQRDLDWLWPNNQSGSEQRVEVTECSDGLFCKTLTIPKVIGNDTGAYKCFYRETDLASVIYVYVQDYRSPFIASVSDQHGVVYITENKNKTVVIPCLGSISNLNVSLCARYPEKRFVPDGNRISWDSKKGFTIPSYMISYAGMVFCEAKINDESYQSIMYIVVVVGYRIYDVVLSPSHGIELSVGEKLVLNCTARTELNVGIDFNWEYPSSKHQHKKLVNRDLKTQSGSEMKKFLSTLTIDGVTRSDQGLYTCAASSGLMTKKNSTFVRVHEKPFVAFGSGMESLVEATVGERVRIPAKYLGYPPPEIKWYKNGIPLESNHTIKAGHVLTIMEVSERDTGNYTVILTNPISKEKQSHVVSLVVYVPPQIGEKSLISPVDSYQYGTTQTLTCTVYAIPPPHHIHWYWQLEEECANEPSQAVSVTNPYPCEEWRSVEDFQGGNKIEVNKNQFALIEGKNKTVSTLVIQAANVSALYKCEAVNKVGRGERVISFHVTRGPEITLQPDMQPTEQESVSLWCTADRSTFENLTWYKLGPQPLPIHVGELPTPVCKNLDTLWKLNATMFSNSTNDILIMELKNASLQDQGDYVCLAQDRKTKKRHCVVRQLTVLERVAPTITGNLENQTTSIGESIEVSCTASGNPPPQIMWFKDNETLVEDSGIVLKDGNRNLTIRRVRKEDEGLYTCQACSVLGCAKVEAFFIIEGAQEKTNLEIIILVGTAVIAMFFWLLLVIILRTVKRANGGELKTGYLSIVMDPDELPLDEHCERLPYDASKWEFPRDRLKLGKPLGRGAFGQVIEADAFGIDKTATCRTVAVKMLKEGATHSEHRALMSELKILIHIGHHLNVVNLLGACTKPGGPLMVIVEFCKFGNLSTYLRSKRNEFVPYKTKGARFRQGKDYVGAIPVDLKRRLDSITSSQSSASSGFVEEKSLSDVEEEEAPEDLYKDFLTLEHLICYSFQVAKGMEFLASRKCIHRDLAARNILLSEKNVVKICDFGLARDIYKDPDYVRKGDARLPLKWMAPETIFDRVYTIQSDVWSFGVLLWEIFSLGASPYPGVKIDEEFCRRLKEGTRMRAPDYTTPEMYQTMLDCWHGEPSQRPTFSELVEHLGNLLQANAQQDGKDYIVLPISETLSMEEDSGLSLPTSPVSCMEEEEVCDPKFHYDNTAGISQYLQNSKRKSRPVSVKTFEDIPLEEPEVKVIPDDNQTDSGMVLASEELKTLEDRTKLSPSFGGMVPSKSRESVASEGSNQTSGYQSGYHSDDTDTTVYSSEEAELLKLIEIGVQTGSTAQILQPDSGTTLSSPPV

Structure (SMILES)	melting point [°C]	IC50 [1] [µM]
CCCCCCCCCCNC(=O)c1ccccc1NCc1ccncc1 [Example 1.14]		0.2
CC(C)CC(C)NC(=O)c1ccccc1NCc1ccncc1 (stereo not drawn) [Example 1.23]		0.5
O=C(NCCN1CCCCC1)c1ccccc1NCc1ccncc1 [Example 1.27]	65.2	1

Compounds with a lower IC50 [1], results first:

melting point [°C]	IC50 [1] [µM]	Structure (SMILES)
103 to 104	0.08	O=C(NC1CCCCCCC1)c1ccccc1NCc1ccncc1 [Example 1.4]
	0.05	CC(C)(C)CCNC(=O)c1ccccc1NCc1ccncc1 [Example 1.19]
118.4	0.039	CC(C)(C)[C@H]1CC[C@H](NC(=O)c2ccccc2NCc2ccncc2)CC1 [Example 1.8]

Source: US20050054692A1, “Azanthranylalkyl and -cycloalkyl amides and their use as VEGF receptor inhibitors” (priority 2000, published 2005)
